Measured values from patent US5700640A, “Inducers of gamma globin gene expression and screening assays therefor” (priority 1994, dated 1997).

Assays:
[1] = system: gamma globin gene expression (gamma3'PE reporter) in K562 cells; test: gamma globin promoter-luciferase reporter assay in stably transfected gamma3'PE K562 cells; settings: for reporter gene activity relative to VA or IVA (FIG. 5): 24 hours, fold-induction relative to isovaleric acid; for fold induction at 5000 µM: Homo sapiens, K562, 72 h, read-out: fold induction of reporter gene activity (FIG. 6); for induction of gamma-globin reporter gene expression over time course (FIG. 3): 24-122 hr, normalized to viable cells
Description: The gamma globin 5' promoter and 3' enhancer fragments, alone or in combination with each other or another fragment, were inserted into restriction endonuclease sites flanking the coding sequences of the luciferase gene in pGL2 using standard recombinant DNA techniques (pGL2 was obtained commercially from Promega Biotech). Constructs were prepared which contained: 1) the gamma globin promoter alone upstream of the luciferase gene (gamma); 2) the gamma globin promoter upstream of the luciferase gene and the gamma globin 3' enhancer downstream of the luciferase gene (gamma3'PE); 3) the gamma globin promoter upstream of the luciferase gene and the SV40 enhancer downstream of the luciferase gene (gammaSV40); 4) the beta globin promoter upstream of the luciferase gene and the gamma globin 3' enhancer downstream of the luciferase gene Coeta3'PE); and 5) hypersensitive sites 2 and 3 G-IS2 and HS3) of the 5' globin enhancer upstream of the gamma globin promoter upstream of the luciferase gene and the gamma globin 3' enhancer downstream of the luciferase gene (HS2/3gamma3'PE). These constructs are illustrated schematically in FIG. 2.
The gamma globin-luciferase reporter gene constructs described in Example 1 were introduced into a human erythroleukemia cell line K562 (ATCC No. CCL 243). To create stable transfectants, K562 cells (5×10^6) in log phase were suspended in 400 μl HEPES buffered saline and then combined with 33.5 μg salmon testes DNA (Sigma), 1.5 μg neo plasmid (pPMT) and 15 μg reporter gene plasmid supercoiled that had been co-precipitated and suspended in 400 μl HEPES buffered saline. The DNA-cell mixture was electroporated at settings of 0.25 KV and 960 μFD using a Gene Pulser (BioRad Inc.) electropotation apparatus.
The cells were allowed to recover 10 minutes at room temperature, then added to 10 ml complete RPMI cell culture medium. Cell debris was removed by centrifugation at 1000 rpm for 5 minutes. The live cells were suspended in 20 ml RPMI in 2×10 cm dishes and grown in non-selective media for 48 hours. Stably transfected cells were then selected by growing the cells in media containing 300 μg/ml G418 for about one month. During this time the cells were split 1:5 every 3 to 4 days. Once the lines were stable, they were carried in 100 μg/ml G418. The cell lines were designated according to the reporter gene construct that was introduced into the cell line. For example, a cell line carrying the gamma'3PE construct was designated gamma3'PE. Transient transfections were carried out similarly except that the neo plasmid was omitted from the electroporation solution and the cells were not subjected to G418 selection.
K562 host cells carrying gamma globin-reporter gene constructs were used to lo screen compounds for their ability to induce globin gene expression, as measured by increased reporter gene activity in the host cells upon treatment with the compound. The host cells described in Example 2 were grown to log phase cells and plated at a density of 2×10^5 /ml in RPMI media without G418. After 24 hours, compounds to be assayed for their ability to induce globin gene expression were dissolved in RPMI media at a concentration of 5 mM and added to the K562 stable transfectants. Mock-treated stably transfected K562 cells served as a negative control. The cells were incubated with the test compounds at 37° C. for various time periods (e.g., 24, 50, 74 and 122 hours).
After induction with the test compounds, the cells were harvested, lysed and assayed for reporter gene activity (i.e., luciferase activity) as follows. Cells were collected, washed once with PBS and lysed in 200 μl Cell Culture Lysis 1 X Reagent (Promega Luciferase Assay System) consisting of 25 mM Tris-Phosphate pH 7.8; 2 mM DTT; 2 mM 1,2-diaminocyclohexane-N,N,N,N-tetraacetic acid; 10% glycerol; 1% Triton X-100.

K562 cells = test: in vitro
Description: (§1) To normalize luciferase units to the number of viable cells, parallel cell viability assays were performed using 3-(4,5-dimethylthiazol-2-yl)-2,5-diphenyltetrazolium bromide (MTT) (Vistica, D. T. et al. (1991) Cancer Res. 51:2515-2520). Transfected K562 cells were plated in 96 well dishes at a density of 2×10^4 and 2×10^3 cells per 100 μl per well. 24 hours later, the cells were treated with test compounds (at a final concentration of 5 mM). At 24, 50, 74 or 122 hours after treatment, 50 μl of 3 mg/ml MTT in PBS was added to each well. The 96 well plate was then incubated at 37° C. for 4 to 5 hours. The formazan derivatives formed from tetrazolium by viable cells were solubilized by the addition of 50 μl/well 25% SDS, pH 3, overnight at 37° C. The plates were than read at a wavelength of 550 nm.

in vitro = settings: human, k562 cells
Description: as §1

[2] = system: gamma globin reporter gene activity in gamma3'PE K562 cells (protein kinase C activation); test: effect of indolactam V stereoisomers on basal and BA-induced reporter gene activity; format: cell-based, human; settings: for effect on BA-induced globin gene expression (fold increment vs untreated cells) / effect on basal level globin gene expression: 11 μM or 0.4 μM; for effect on BA-induced globin gene expression (fold increment vs untreated cells): 1 hour before 5 mM BA for 24 hours; for effect on basal level globin gene expression: no BA
Description: The role of activated protein kinase C (pKC) in the activation of gamma globin gene expression by BA was investigated. […] The chemical structures of these compounds are shown in FIG. 13, panel A and B, respectively. Gamma3'PE cells were pre-incubated with either inducer (at 11 μM or 0.4 μM) or left untreated for 1 hour prior to treatment with 5 mMBA for 24 hours, followed by harvesting of the cells and assaying of luciferase activity. The results are shown in FIG. 14, Panel A (11 μM inducer) and FIG. 14, Panel B (0.4 μM inducer). […] Thus, it appears that these compounds act synergistically through pathways converging at some point downstream of the initial site of action of either inducer.

GATA-1 mRNA = test: Northern hybridization of GATA-1 mRNA in treated K562 cells; format: cell-based, human; settings: for induction of mRNA encoding GATA-1: normalized data; for Normalized Value, GATA-1 RNA: normalized to 28S ribosomal RNA
Description: (§2) Total RNA was prepared by the method of McDonald as described in Sambrook et al., (1989) Molecular Cloning: A Laboratory Manual, 2nd Edition, Cold Spring Harbor Laboratory Press. 10 μg total cellular RNA was electrophoresed through agarose gels containing 3.3% formaldehyde. The electrophoresed RNA was then transferred to nitrocellulose filters by standard methods. Each sample was hybridized to specific probes for gamma globin mRNA, mRNA encoding the erythroid specific transcription factor GATA-1 and 28S ribosomal RNA (which was used for standardization). The gamma globin and GATA-1 probes were cDNA probes, which were labeled with ^32 p by random priming reactions (Promega Biotech Inc.). The 28S ribosomal RNA probe was an oligonucleotide having the sequence 5' […] 3' (SEQ ID NO: 3), which was labeled by 5' end labeling using T4 polynucleotide kinase (New England Biolabs). Nucleotide probes were hybridized to the RNA nitrocellulose filters according to standard techniques. After hybridization, radioactive signals on the nitrocellulose filters were directly quantified using a BioRad GS-250 Molecular Imager. mRNA hybridization intensities were normalized to the amount of 28S ribosomal RNA present for each sample.

gamma globin mRNA = test: Northern hybridization of gamma globin mRNA in treated K562 cells; format: cell-based, human; settings: for Raw Value, gamma globin RNA / Normalized Value, gamma globin RNA: K562 cells, 5 mM, 96 hours; for Normalized Value, gamma globin RNA: normalized to 28S ribosomal RNA; for gamma globin mRNA steady state level: vs untreated cells or cells treated with BA
Description: as §2

[3] = system: BA-mediated induction of luciferase activity in gamma3'PE K562 cells; test: effect of transport inhibitors on BA-induced reporter gene activity in gamma3'PE K562 cells; format: cell-based, human; settings: acetazolamide 1 mM, SITS 10 μM, amiloride 10 μM; 24 hours with BA
Description: To characterize uptake of butyric acid by erythroid cells, K562 cells stably transfected with gamma3'PE were treated with BA in the presence of various transport inhibitors. […] Cells were maintained in the continuous presence of both BA and the inhibitor for 24 hours and then luciferase activity in the cells was measured.

[4] = compared with induction mediated by BA

O=C(O)CCc1ccccc1 [3-phenyl propionic acid]
reporter gene activity relative to VA or IVA (FIG. 5) ([1]; 5 mM): detectable reporter gene activity, although to a lesser extent than VA or IVA

O=C(O)CCCc1ccccc1 [4-phenyl butyric acid]
reporter gene activity relative to VA or IVA (FIG. 5) ([1]; 5 mM): detectable reporter gene activity to a slightly greater extent than VA or IVA

C#CCCC(=O)O [4PyA, 4-pentynoic acid]
cell death accompanying gamma globin gene induction (K562 cells): significantly less cell death than induction mediated by BA
viability at 72 h, 5000 µM (in vitro): > 50%
fold induction at 5000 µM [1]: ~4

O=C(O)CCCCc1ccccc1 [5-phenyl valeric acid]
reporter gene activity relative to VA or IVA (FIG. 5) ([1]; 5 mM): detectable reporter gene activity, although to a lesser extent than VA or IVA

CC(C)[C@@H]1C(=O)N[C@@H](CO)Cc2c[nH]c3cccc(c23)N1C [(+) indolactam V]
effect on BA-induced globin gene expression (fold increment vs untreated cells) [2]: same fold increment
effect on basal level globin gene expression [2]: unaffected

CC(C)[C@H]1C(=O)N[C@H](CO)Cc2c[nH]c3cccc(c23)N1C [(-) indolactam V]
effect on BA-induced globin gene expression (fold increment vs untreated cells) [2]: same fold increment
effect on basal level globin gene expression [2]: significant stimulatory effect on basal level globin gene expression
net increase in gene expression of combined treatment with BA ([2]; combined (-) indolactam V and 5 mM BA): well above the arithmetic sum of the level of induction achieved by either of these compounds separately

CC(C)CC(=O)O [IVA, isovaleric acid]
cell death accompanying gamma globin gene induction (K562 cells; [4]): significantly less cell death than induction mediated by BA
induction of mRNA encoding GATA-1 (GATA-1 mRNA): significant induction of mRNA encoding GATA-1
Normalized Value, GATA-1 RNA (GATA-1 mRNA; K562 cells, 5 mM, 96 hours): 1.3 × 10^6
induction of gamma-globin reporter gene expression over time course (FIG. 3) ([1]; 5 mM): lower but sustained induction of reporter gene expression
Raw Value, gamma globin RNA (gamma globin mRNA): 5.94 × 10^6
Normalized Value, gamma globin RNA (gamma globin mRNA): 5.3 × 10^6
gamma globin mRNA steady state level (gamma globin mRNA): higher steady state level of gamma globin mRNA than untreated cells or cells treated with BA

COCC(=O)O [MoAA, methoxyacetic acid]
cell death accompanying gamma globin gene induction (K562 cells; [4]): significantly less cell death than induction mediated by BA
viability at 72 h, 5000 µM (in vitro): > 50%
fold induction at 5000 µM [1]: ~4

CSCC(=O)O [MtAA, methylthioacetic acid]
cell death accompanying gamma globin gene induction (K562 cells): significantly less cell death than induction mediated by BA
viability at 72 h, 5000 µM (in vitro): > 50%
fold induction at 5000 µM [1]: ~5

CC(=O)Nc1ccc(C=Cc2ccc(N=C=S)cc2S(=O)(=O)O)c(S(=O)(=O)O)c1 [SITS]
effect on BA-mediated induction of luciferase activity [3]: did not affect BA-mediated induction of luciferase activity

CCCCC(=O)O [VA, valeric acid]
cell death accompanying gamma globin gene induction (K562 cells): significantly less cell death than induction mediated by BA
cell viability relative to untreated cells (FIG. 7) (K562 cells): equivalent to that of untreated cells
fold induction at 5000 µM (GATA-1 mRNA; Homo sapiens, K562, 96 h, read-out: Fold Induction, GATA-1 RNA): 6
Raw Value, GATA-1 RNA (GATA-1 mRNA; K562 cells, 5 mM, 96 hours): 3.96 × 10^5
induction of mRNA encoding GATA-1 (GATA-1 mRNA): significant induction of mRNA encoding GATA-1
Normalized Value, GATA-1 RNA (GATA-1 mRNA; K562 cells, 5 mM, 96 hours): 3.5 × 10^5
induction of gamma-globin reporter gene expression over time course (FIG. 3) ([1]; 5 mM): lower but sustained induction of reporter gene expression
induction relative to BA at 74 hr (FIG. 4) ([1]; 5 mM, normalized to fold induction by BA, 74 hr): marginally better inducers than BA at 74 hr
induction relative to BA at 122 hr (FIG. 4) ([1]; 5 mM, normalized to fold induction by BA, 122 hr): significantly better inducers than BA at 122 hr post induction
fold induction at 5000 µM (gamma globin mRNA; Homo sapiens, K562, 96 h, read-out: Fold Induction, gamma globin RNA): 4.4
Raw Value, gamma globin RNA (gamma globin mRNA): 3.35 × 10^6
Normalized Value, gamma globin RNA (gamma globin mRNA): 3.3 × 10^6
gamma globin mRNA steady state level (gamma globin mRNA): higher steady state level of gamma globin mRNA than untreated cells or cells treated with BA

CC(=O)Nc1nnc(S(N)(=O)=O)s1 [acetazolamide]
effect on BA-mediated induction of luciferase activity [3]: did not affect BA-mediated induction of luciferase activity

N=C(N)NC(=O)c1nc(Cl)c(N)nc1N [amiloride]
effect on BA-mediated induction of luciferase activity [3]: did not affect BA-mediated induction of luciferase activity

CCC(=O)O [propionic acid]
reporter gene activity relative to VA or IVA (FIG. 5) ([1]; 5 mM): detectable reporter gene activity, although to a lesser extent than VA or IVA

CCCCC(=O)OC(=O)CCCC [valeric acid anhydride]
reporter gene activity relative to VA or IVA (FIG. 5) ([1]; 5 mM): detectable reporter gene activity, although to a lesser extent than VA or IVA
